How the values were obtained:
p38a/MK2 = p38a/MK2 (Homo sapiens (Human), UniProt P49137+Q16539); assay: p38a/MK2 biochemical assay: activation of MK2 by p38, FITC-HSP27 peptide phosphorylation (IMAP FP); settings: 10-point 1:3 dilution, top dose 1 μM; 60 pM active p38a, 1 nM inactive MK2, 10 μM ATP, 2 h incubation; read-out: p38a/MK2 (1 μM) Enzyme pIC50 (converted)
p38a/PRAK = p38a/PRAK (Homo sapiens (Human), UniProt Q16539); assay: p38a/PRAK biochemical assay: activation of PRAK by p38, FITC-HSP27 peptide phosphorylation (IMAP FP); settings: 10-point 1:3 dilution, top dose 300 μM; 60 pM active p38a, 1 nM inactive PRAK, 10 μM ATP, 2 h incubation; read-out: p38a/PRAK Enzyme pIC50 (converted)
How it was run: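 GST-tagged MK2 (F46–H400) and PRAK (M1–Q471), expressed in E. coli, activated by p38 and phosphorylate FITC-HSP27 peptide over 2 h with compound; readout by IMAP fluorescence polarisation (ex 485/em 528 nm). Ten-point 1:3 dilutions, top dose 1 μM for MK2 and 300 μM for PRAK. IC50 after vehicle normalisation; selectivity = IC50(PRAK)/IC50(MK2).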

Chain of p38a/MK2 (P49137 46-400): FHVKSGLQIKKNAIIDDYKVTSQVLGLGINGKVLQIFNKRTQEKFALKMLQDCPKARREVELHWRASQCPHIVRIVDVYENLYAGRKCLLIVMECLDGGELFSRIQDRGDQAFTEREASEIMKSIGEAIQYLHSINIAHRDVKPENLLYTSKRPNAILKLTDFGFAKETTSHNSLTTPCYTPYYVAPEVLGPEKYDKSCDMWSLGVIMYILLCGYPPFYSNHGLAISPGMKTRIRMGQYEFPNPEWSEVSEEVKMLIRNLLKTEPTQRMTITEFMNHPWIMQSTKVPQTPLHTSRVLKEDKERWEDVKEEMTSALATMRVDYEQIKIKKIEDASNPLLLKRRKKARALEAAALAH
Chain of p38a/MK2 (Q16539 whole entry): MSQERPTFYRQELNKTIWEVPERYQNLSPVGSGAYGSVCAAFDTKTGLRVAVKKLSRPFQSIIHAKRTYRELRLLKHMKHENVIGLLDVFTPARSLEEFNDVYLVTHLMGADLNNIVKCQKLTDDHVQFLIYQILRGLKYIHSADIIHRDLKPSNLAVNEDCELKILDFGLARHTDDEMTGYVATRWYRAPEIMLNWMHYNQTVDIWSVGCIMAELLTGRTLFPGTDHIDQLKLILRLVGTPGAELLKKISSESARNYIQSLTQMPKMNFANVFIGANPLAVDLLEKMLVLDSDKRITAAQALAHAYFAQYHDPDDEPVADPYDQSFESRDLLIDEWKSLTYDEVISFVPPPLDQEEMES
Chain of p38a/PRAK (Q16539 whole entry): as above

IC50 (p38a/MK2): > 0.1 µM
IC50 (p38a/PRAK): > 316 µM
Structure (SMILES): [2H]C([2H])(Oc1cc(C)n(-c2c(C)cnc(-c3cccc(C(C)(C)O)[n+]3[O-])c2F)c(=O)c1Cl)c1ncc(F)cc1F [Example 68A, rel-4′-{3-chloro-4-[(3,5-difluoropyridin-2-yl) (2H2)methoxy]-6-methyl-2-oxopyridin-1-yl}-3′-fluoro-6-(2-hydroxypropan-2-yl)-5′-methyl-[2,2′-bipyridin]-1-ium-1-olate]

Source: patent US11680056B2, “MK2 inhibitors and uses thereof” (Xinthera, Inc., priority 2021, dated 2023)
